According to US20230295115A1, “SUBSTITUTED ISOQUINOLINYLMETHYL AMIDES, ANALOGUES THEREOF, AND METHODS USING SAME” (priority 2020, published 2023):

tested on: HBV rcDNA; assay: HepDE19 assay with bDNA quantitation of HBV rcDNA; assay type: cell-based, hepatitis B virus (HBV); conditions: HepDE19 cells, 7 day incubation, rcDNA measured by Quantigene 2.0 bDNA assay, top concentration 25 μM; read-out: DE-19bDNA EC50
How it was run: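 HepDE19 cells were switched to tetracycline-free medium and exposed to compound (0.5% DMSO final) for 7 days at 37° C. rcDNA was then quantified by bDNA with an HBV-specific probe set. In parallel, viability was read as ATP content (CellTiter-Glo) after 4 days on replicate plates.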

Structure (SMILES) | EC50 [nM]
CC(c1c[nH]c(=O)c2cc(F)c(F)cc12)N(C)C(=O)c1ccc(C(F)(F)F)cc1 (single isomer, unassigned) [Compound 129, N-(1-(6,7-Difluoro-1-oxo-1,2-dihydroisoquinolin-4-yl)ethyl)-N-methyl-4-(trifluoromethyl) benzamide] | 6460
CC(c1c[nH]c(=O)c2cc(F)c(F)cc12)N(C)C(=O)c1ccc(C(F)(F)F)cc1 (single isomer, unassigned) [Compound 130, N-(1-(6,7-Difluoro-1-oxo-1,2-dihydroisoquinolin-4-yl)ethyl)-N-methyl-4-(trifluoromethyl) benzamide] | 20
CC(c1c[nH]c(=O)c2cc(F)c(F)cc12)N(C)C(=O)c1ccc(F)c(C(F)F)c1 (single isomer, unassigned) [Compound 133, N-(1-(6,7-Difluoro-1-oxo-1,2-dihydroisoquinolin-4-yl)ethyl)-3-(difluoromethyl)-4-fluoro-N-methylbenzamide] | 14600
CC(c1c[nH]c(=O)c2cc(F)c(F)cc12)N(C)C(=O)c1ccc(F)c(C(F)F)c1 (single isomer, unassigned) [Compound 134, N-(1-(6,7-Difluoro-1-oxo-1,2-dihydroisoquinolin-4-yl)ethyl)-3-(difluoromethyl)-4-fluoro-N-methylbenzamide] | 60
CC(c1c[nH]c(=O)c2cc(F)c(F)cc12)N(C)C(=O)c1ccc(F)c(Cl)c1 (single isomer, unassigned) [Compound 135, 3-Chloro-N-(1-(6,7-difluoro-1-oxo-1,2-dihydroisoquinolin-4-yl)ethyl)-4-fluoro-N-methylbenzamide] | 9610
CC(c1c[nH]c(=O)c2cc(F)c(F)cc12)N(C)C(=O)c1ccc(F)c(Cl)c1 (single isomer, unassigned) [Compound 136, 3-Chloro-N-(1-(6,7-difluoro-1-oxo-1,2-dihydroisoquinolin-4-yl)ethyl)-4-fluoro-N-methylbenzamide] | 170
CC(c1c[nH]c(=O)c2cc(F)c(F)cc12)N(C)C(=O)c1ccc(F)c(F)c1 (single isomer, unassigned) [Compound 137, N-(1-(6,7-Difluoro-1-oxo-1,2-dihydroisoquinolin-4-yl)ethyl)-3,4-difluoro-N-methylbenzamide] | 22400
CC(c1c[nH]c(=O)c2cc(F)c(F)cc12)N(C)C(=O)c1ccc(F)c(F)c1 (single isomer, unassigned) [Compound 138, N-(1-(6,7-Difluoro-1-oxo-1,2-dihydroisoquinolin-4-yl)ethyl)-3,4-difluoro-N-methylbenzamide] | 450
CC(c1c[nH]c(=O)c2cc(F)c(F)cc12)N(C)C(=O)c1ccc2c(ccn2C)c1 (single isomer, unassigned) [Compound 139, N-(1-(6,7-difluoro-1-oxo-1,2-dihydroisoquinolin-4-yl)ethyl)-N,1-dimethyl-1H-indole-5-carboxamide] | > 25000
CC(c1c[nH]c(=O)c2cc(F)c(F)cc12)N(C)C(=O)c1ccc2c(ccn2C)c1 (single isomer, unassigned) [Compound 140, N-(1-(6,7-difluoro-1-oxo-1,2-dihydroisoquinolin-4-yl)ethyl)-N,1-dimethyl-1H-indole-5-carboxamide] | 120
CC(c1c[nH]c(=O)c2cc(F)c(F)cc12)N(C)C(=O)c1ccc2ccn(C)c2c1 (single isomer, unassigned) [Compound 141, N-(1-(6,7-Difluoro-1-oxo-1,2-dihydroisoquinolin-4-yl)ethyl)-N,1-dimethyl-1H-indole-6-carboxamide] | > 25000
CC(c1c[nH]c(=O)c2cc(F)c(F)cc12)N(C)C(=O)c1ccc2ccn(C)c2c1 (single isomer, unassigned) [Compound 142, N-(1-(6,7-Difluoro-1-oxo-1,2-dihydroisoquinolin-4-yl)ethyl)-N,1-dimethyl-1H-indole-6-carboxamide] | 390
CC(c1cn(C)c(=O)c2cc(F)c(F)cc12)N(C)C(=O)c1ccc(Br)c(F)c1 (single isomer, unassigned) [Compound 161, 4-bromo-N-(1-(6,7-difluoro-2-methyl-1-oxo-1,2-dihydroisoquinolin-4-yl)ethyl)-3-fluoro-N-methylbenzamide] | 3090
CC(c1cn(C)c(=O)c2cc(F)c(F)cc12)N(C)C(=O)c1ccc(Br)c(F)c1 (single isomer, unassigned) [Compound 162, 4-bromo-N-(1-(6,7-difluoro-2-methyl-1-oxo-1,2-dihydroisoquinolin-4-yl)ethyl)-3-fluoro-N-methylbenzamide] | 30
CC(c1cn(C)c(=O)c2cc(F)c(F)cc12)N(C)C(=O)c1ccc(C(F)(F)F)c(F)c1 (single isomer, unassigned) [Compound 166, N-(1-(6,7-difluoro-2-methyl-1-oxo-1,2-dihydroisoquinolin-4-yl)ethyl)-3-fluoro-N-methyl-4-(trifluoromethyl)benzamide] | 3320
CC(c1cn(C)c(=O)c2cc(F)c(F)cc12)N(C)C(=O)c1ccc(Br)cc1 (single isomer, unassigned) [Compound 167, 4-bromo-N-(1-(6,7-difluoro-2-methyl-1-oxo-1,2-dihydroisoquinolin-4-yl)ethyl)-N-methylbenzamide] | 2320
CC(c1cn(C)c(=O)c2cc(F)c(F)cc12)N(C)C(=O)c1ccc(Br)cc1 (single isomer, unassigned) [Compound 168, 4-bromo-N-(1-(6,7-difluoro-2-methyl-1-oxo-1,2-dihydroisoquinolin-4-y1)ethyl)-N-methylbenzamide] | 30

same assay, conditions: Hepatitis B virus, HepDE19, 168 h, HepDE19 cells, 7 day incubation, rcDNA measured by Quantigene 2.0 bDNA assay, top concentration 25 μM; read-out: DE-19bDNA EC50

Structure (SMILES) | EC50 [nM]
CC(c1cn(C)c(=O)c2cc(F)c(F)cc12)N(C)C(=O)c1ccc(C(F)(F)F)c(F)c1 (single isomer, unassigned) [Compound 165, N-(1-(6,7-difluoro-2-methyl-1-oxo-1,2-dihydroisoquinolin-4-yl)ethyl)-3-fluoro-N-methyl-4-(trifluoromethyl)benzamide] | 2340

same assay, conditions: read-out: DE-19bDNA EC50; HepDE19 cells, 7 day incubation, rcDNA measured by Quantigene 2.0 bDNA assay, top concentration 25 μM

Structure (SMILES) | EC50 [nM]
CC(c1c[nH]c(=O)c2cc(F)c(F)cc12)N(C)C(=O)c1ccccc1 (single isomer, unassigned) [Compound 128, N-(1-(6,7-Difluoro-1-oxo-1,2-dihydroisoquinolin-4-yl)ethyl)-N-methylbenzamide] | > 25000
CC(c1c[nH]c(=O)c2cc(F)c(F)cc12)N(C)C(=O)c1ccc(Cl)cc1 (single isomer, unassigned) [Compound 131, 4-Chloro-N-(1-(6,7-difluoro-1-oxo-1,2-dihydroisoquinolin-4-yl)ethyl)-N-methylbenzamide] | 14700
CC(c1c[nH]c(=O)c2cc(F)c(F)cc12)N(C)C(=O)c1ccc(Cl)cc1 (single isomer, unassigned) [Compound 132, 4-Chloro-N-(1-(6,7-difluoro-1-oxo-1,2-dihydroisoquinolin-4-yl)ethyl)-N-methylbenzamide] | 60
COc1ncc(C(C)N(C)C(=O)c2ccc(Br)cc2)c2cc(F)c(F)cc12 (single isomer, unassigned) [Compound 163, 4-Bromo-N-(1-(6,7-difluoro-1-methoxyisoquinolin-4-yl)ethyl)-N-methylbenzamide] | 440
COc1ncc(C(C)N(C)C(=O)c2ccc(Br)cc2)c2cc(F)c(F)cc12 (single isomer, unassigned) [Compound 164, 4-Bromo-N-(1-(6,7-difluoro-1-methoxyisoquinolin-4-yl)ethyl)-N-methylbenzamide] | 17200
